Laboratory results reported in the supplement of paper PMC10307832.

Columns and labels:
Assay in all cases: relative viability (nuclei count vs DMSO), 5 days (fraction); higher = more cells survive
KIN001-266 + Dasatinib = compound: CCN1CCC(CC1)N2C=C(N=N2)CNC3=CC4=C(C(=CN=C4C(=C3)Cl)C#N)NC5=CC(=C(C=C5)F)Cl [KIN001-266] + Cc1nc(Nc2ncc(C(=O)Nc3c(C)cccc3Cl)s2)cc(N2CCN(CCO)CC2)n1 [Dasatinib] (partner 0.075 µM)
Procedure, shortened: (§1)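 A single step with final 0.05% Triton X-100, 1% formaldehyde and 1 ug/ml Hoechst fixed the cells and stained nuclei 5 days after treatment. Lung cancer cell lines in 1536-well plates had been treated by pin tool the day after seeding with one drug alone or a fixed anchor-drug dose plus five library-drug doses (not always all listed) in √10 steps, and nuclei were counted on 4× images. Relative viability is the ratio of nuclei in treated wells to nuclei in vehicle wells, taken as the median of duplicate plates.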

KIN001-266 + Palbociclib = compound: CCN1CCC(CC1)N2C=C(N=N2)CNC3=CC4=C(C(=CN=C4C(=C3)Cl)C#N)NC5=CC(=C(C=C5)F)Cl [KIN001-266] + CC(=O)c1c(C)c2cnc(Nc3ccc(N4CCNCC4)cn3)nc2n(C2CCCC2)c1=O [Palbociclib] (partner 0.5 µM)
Procedure, shortened: as §1

KIN001-266 + Vorinostat = compound: CCN1CCC(CC1)N2C=C(N=N2)CNC3=CC4=C(C(=CN=C4C(=C3)Cl)C#N)NC5=CC(=C(C=C5)F)Cl [KIN001-266] + O=C(CCCCCCC(=O)Nc1ccccc1)NO [Vorinostat] (partner 1 µM)
Procedure, shortened: as §1

KIN001-266 + Pemetrexed = compound: CCN1CCC(CC1)N2C=C(N=N2)CNC3=CC4=C(C(=CN=C4C(=C3)Cl)C#N)NC5=CC(=C(C=C5)F)Cl [KIN001-266] + Nc1nc2[nH]cc(CCc3ccc(C(=O)N[C@@H](CCC(=O)O)C(=O)O)cc3)c2c(=O)[nH]1 [Pemetrexed] (partner 0.2 µM)
Procedure, shortened: as §1

## NCI-H441
KIN001-266 + Dasatinib; first compound 0.08 µM
  relative viability: 0.655
KIN001-266 + Dasatinib; first compound 0.253 µM
  relative viability: 0.836
KIN001-266 + Dasatinib; first compound 0.8 µM
  relative viability: 0.64
KIN001-266 + Dasatinib; first compound 2.53 µM
  relative viability: 0.658
KIN001-266 + Dasatinib; first compound 8 µM
  relative viability: 0.362
KIN001-266 + Palbociclib; first compound 0.08 µM
  relative viability: 0.294
KIN001-266 + Palbociclib; first compound 0.253 µM
  relative viability: 0.223
KIN001-266 + Palbociclib; first compound 0.8 µM
  relative viability: 0.217
KIN001-266 + Palbociclib; first compound 2.53 µM
  relative viability: 0.22
KIN001-266 + Palbociclib; first compound 8 µM
  relative viability: 0.259
KIN001-266 + Vorinostat; first compound 0.08 µM
  relative viability: 0.968
KIN001-266 + Vorinostat; first compound 0.253 µM
  relative viability: 0.765
KIN001-266 + Vorinostat; first compound 0.8 µM
  relative viability: 0.58
KIN001-266 + Vorinostat; first compound 2.53 µM
  relative viability: 0.617
KIN001-266 + Vorinostat; first compound 8 µM
  relative viability: 0.584
KIN001-266 + Pemetrexed; first compound 0.08 µM
  relative viability: 0.251
KIN001-266 + Pemetrexed; first compound 0.253 µM
  relative viability: 0.253
KIN001-266 + Pemetrexed; first compound 0.8 µM
  relative viability: 0.233
KIN001-266 + Pemetrexed; first compound 2.53 µM
  relative viability: 0.261
KIN001-266 + Pemetrexed; first compound 8 µM
  relative viability: 0.248

## NCI-H460
KIN001-266 + Dasatinib; first compound 0.08 µM
  relative viability: 0.659
KIN001-266 + Dasatinib; first compound 0.253 µM
  relative viability: 0.513
KIN001-266 + Dasatinib; first compound 0.8 µM
  relative viability: 0.531
KIN001-266 + Dasatinib; first compound 2.53 µM
  relative viability: 0.45
KIN001-266 + Dasatinib; first compound 8 µM
  relative viability: 0.496
KIN001-266 + Palbociclib; first compound 0.08 µM
  relative viability: 0.175
KIN001-266 + Palbociclib; first compound 0.253 µM
  relative viability: 0.161
KIN001-266 + Palbociclib; first compound 0.8 µM
  relative viability: 0.263
KIN001-266 + Palbociclib; first compound 2.53 µM
  relative viability: 0.176
KIN001-266 + Palbociclib; first compound 8 µM
  relative viability: 0.153
KIN001-266 + Vorinostat; first compound 0.08 µM
  relative viability: 0.725
KIN001-266 + Vorinostat; first compound 0.253 µM
  relative viability: 0.697
KIN001-266 + Vorinostat; first compound 0.8 µM
  relative viability: 0.735
KIN001-266 + Vorinostat; first compound 2.53 µM
  relative viability: 0.649
KIN001-266 + Vorinostat; first compound 8 µM
  relative viability: 0.671
KIN001-266 + Pemetrexed; first compound 0.08 µM
  relative viability: 0.06
KIN001-266 + Pemetrexed; first compound 0.253 µM
  relative viability: 0.0695
KIN001-266 + Pemetrexed; first compound 0.8 µM
  relative viability: 0.065
KIN001-266 + Pemetrexed; first compound 2.53 µM
  relative viability: 0.0681
KIN001-266 + Pemetrexed; first compound 8 µM
  relative viability: 0.0901

## NCI-H520
KIN001-266 + Dasatinib; first compound 0.08 µM
  relative viability: 0.209
KIN001-266 + Dasatinib; first compound 0.253 µM
  relative viability: 0.208
KIN001-266 + Dasatinib; first compound 0.8 µM
  relative viability: 0.187
KIN001-266 + Dasatinib; first compound 2.53 µM
  relative viability: 0.168
KIN001-266 + Dasatinib; first compound 8 µM
  relative viability: 0.194
KIN001-266 + Palbociclib; first compound 0.08 µM
  relative viability: 0.23
KIN001-266 + Palbociclib; first compound 0.253 µM
  relative viability: 0.236
KIN001-266 + Palbociclib; first compound 0.8 µM
  relative viability: 0.243
KIN001-266 + Palbociclib; first compound 2.53 µM
  relative viability: 0.165
KIN001-266 + Palbociclib; first compound 8 µM
  relative viability: 0.237
KIN001-266 + Vorinostat; first compound 0.08 µM
  relative viability: 0.659
KIN001-266 + Vorinostat; first compound 0.253 µM
  relative viability: 0.71
KIN001-266 + Vorinostat; first compound 0.8 µM
  relative viability: 0.838
KIN001-266 + Vorinostat; first compound 2.53 µM
  relative viability: 0.673
KIN001-266 + Vorinostat; first compound 8 µM
  relative viability: 0.452
KIN001-266 + Pemetrexed; first compound 0.08 µM
  relative viability: 0.709
KIN001-266 + Pemetrexed; first compound 0.253 µM
  relative viability: 0.714
KIN001-266 + Pemetrexed; first compound 0.8 µM
  relative viability: 0.671
KIN001-266 + Pemetrexed; first compound 2.53 µM
  relative viability: 0.565
KIN001-266 + Pemetrexed; first compound 8 µM
  relative viability: 0.65

## NCI-H522
KIN001-266 + Dasatinib; first compound 0.08 µM
  relative viability: 0.919
KIN001-266 + Dasatinib; first compound 0.253 µM
  relative viability: 0.918
KIN001-266 + Dasatinib; first compound 0.8 µM
  relative viability: 0.853
KIN001-266 + Dasatinib; first compound 2.53 µM
  relative viability: 0.862
KIN001-266 + Dasatinib; first compound 8 µM
  relative viability: 0.934
KIN001-266 + Palbociclib; first compound 0.08 µM
  relative viability: 1.04
KIN001-266 + Palbociclib; first compound 0.253 µM
  relative viability: 1.07
KIN001-266 + Palbociclib; first compound 0.8 µM
  relative viability: 0.952
KIN001-266 + Palbociclib; first compound 2.53 µM
  relative viability: 0.95
KIN001-266 + Palbociclib; first compound 8 µM
  relative viability: 0.804
KIN001-266 + Vorinostat; first compound 0.08 µM
  relative viability: 0.936
KIN001-266 + Vorinostat; first compound 0.253 µM
  relative viability: 0.887
KIN001-266 + Vorinostat; first compound 0.8 µM
  relative viability: 0.876
KIN001-266 + Vorinostat; first compound 2.53 µM
  relative viability: 0.979
KIN001-266 + Vorinostat; first compound 8 µM
  relative viability: 0.943
KIN001-266 + Pemetrexed; first compound 0.08 µM
  relative viability: 1.06
KIN001-266 + Pemetrexed; first compound 0.253 µM
  relative viability: 1.01
KIN001-266 + Pemetrexed; first compound 0.8 µM
  relative viability: 1.01
KIN001-266 + Pemetrexed; first compound 2.53 µM
  relative viability: 1.06
KIN001-266 + Pemetrexed; first compound 8 µM
  relative viability: 0.932

## NCI-H647
KIN001-266 + Dasatinib; first compound 0.08 µM
  relative viability: 0.249
KIN001-266 + Dasatinib; first compound 0.253 µM
  relative viability: 0.268
KIN001-266 + Dasatinib; first compound 0.8 µM
  relative viability: 0.181
KIN001-266 + Dasatinib; first compound 2.53 µM
  relative viability: 0.152
KIN001-266 + Dasatinib; first compound 8 µM
  relative viability: 0.15
KIN001-266 + Palbociclib; first compound 0.08 µM
  relative viability: 0.432
KIN001-266 + Palbociclib; first compound 0.253 µM
  relative viability: 0.399
KIN001-266 + Palbociclib; first compound 0.8 µM
  relative viability: 0.428
KIN001-266 + Palbociclib; first compound 2.53 µM
  relative viability: 0.479
KIN001-266 + Palbociclib; first compound 8 µM
  relative viability: 0.351
KIN001-266 + Vorinostat; first compound 0.08 µM
  relative viability: 0.562
KIN001-266 + Vorinostat; first compound 0.253 µM
  relative viability: 0.631
KIN001-266 + Vorinostat; first compound 0.8 µM
  relative viability: 0.921
KIN001-266 + Vorinostat; first compound 2.53 µM
  relative viability: 0.761
KIN001-266 + Vorinostat; first compound 8 µM
  relative viability: 0.508
KIN001-266 + Pemetrexed; first compound 0.08 µM
  relative viability: 0.195
KIN001-266 + Pemetrexed; first compound 0.253 µM
  relative viability: 0.216
KIN001-266 + Pemetrexed; first compound 0.8 µM
  relative viability: 0.181
KIN001-266 + Pemetrexed; first compound 2.53 µM
  relative viability: 0.158
KIN001-266 + Pemetrexed; first compound 8 µM
  relative viability: 0.198

## NCI-H650
KIN001-266 + Dasatinib; first compound 0.08 µM
  relative viability: 0.609
KIN001-266 + Dasatinib; first compound 0.253 µM
  relative viability: 0.531
KIN001-266 + Dasatinib; first compound 0.8 µM
  relative viability: 0.455
KIN001-266 + Dasatinib; first compound 2.53 µM
  relative viability: 0.451
KIN001-266 + Dasatinib; first compound 8 µM
  relative viability: 0.517
KIN001-266 + Palbociclib; first compound 0.08 µM
  relative viability: 0.375
KIN001-266 + Palbociclib; first compound 0.253 µM
  relative viability: 0.361
KIN001-266 + Palbociclib; first compound 0.8 µM
  relative viability: 0.357
KIN001-266 + Palbociclib; first compound 2.53 µM
  relative viability: 0.363
KIN001-266 + Palbociclib; first compound 8 µM
  relative viability: 0.413
KIN001-266 + Vorinostat; first compound 0.08 µM
  relative viability: 0.321
KIN001-266 + Vorinostat; first compound 0.253 µM
  relative viability: 0.558
KIN001-266 + Vorinostat; first compound 0.8 µM
  relative viability: 0.505
KIN001-266 + Vorinostat; first compound 2.53 µM
  relative viability: 0.455
KIN001-266 + Vorinostat; first compound 8 µM
  relative viability: 0.598
KIN001-266 + Pemetrexed; first compound 0.08 µM
  relative viability: 1.15
KIN001-266 + Pemetrexed; first compound 0.253 µM
  relative viability: 0.988
KIN001-266 + Pemetrexed; first compound 0.8 µM
  relative viability: 1.09
KIN001-266 + Pemetrexed; first compound 2.53 µM
  relative viability: 1.02
KIN001-266 + Pemetrexed; first compound 8 µM
  relative viability: 0.946

## NCI-H661
KIN001-266 + Dasatinib; first compound 0.08 µM
  relative viability: 0.897
KIN001-266 + Dasatinib; first compound 0.253 µM
  relative viability: 1.01
KIN001-266 + Dasatinib; first compound 0.8 µM
  relative viability: 0.847
KIN001-266 + Dasatinib; first compound 2.53 µM
  relative viability: 0.894
KIN001-266 + Dasatinib; first compound 8 µM
  relative viability: 0.657
KIN001-266 + Palbociclib; first compound 0.08 µM
  relative viability: 0.424
KIN001-266 + Palbociclib; first compound 0.253 µM
  relative viability: 0.413
KIN001-266 + Palbociclib; first compound 0.8 µM
  relative viability: 0.403
KIN001-266 + Palbociclib; first compound 2.53 µM
  relative viability: 0.372
KIN001-266 + Palbociclib; first compound 8 µM
  relative viability: 0.349
KIN001-266 + Vorinostat; first compound 0.08 µM
  relative viability: 0.776
KIN001-266 + Vorinostat; first compound 0.253 µM
  relative viability: 0.765
KIN001-266 + Vorinostat; first compound 0.8 µM
  relative viability: 0.781
KIN001-266 + Vorinostat; first compound 2.53 µM
  relative viability: 0.771
KIN001-266 + Vorinostat; first compound 8 µM
  relative viability: 0.78
KIN001-266 + Pemetrexed; first compound 0.08 µM
  relative viability: 0.913
KIN001-266 + Pemetrexed; first compound 0.253 µM
  relative viability: 0.946
KIN001-266 + Pemetrexed; first compound 0.8 µM
  relative viability: 0.932
KIN001-266 + Pemetrexed; first compound 2.53 µM
  relative viability: 0.856
KIN001-266 + Pemetrexed; first compound 8 µM
  relative viability: 0.741
